According to the supplement of paper PMC11061612:

Legend:
[1] = tested on: KYSE-150 (Esophageal Squamous Cell Carcinoma); assay: Bliss excess, mean over the matrix (fraction); higher = more synergy
In short: (§1)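 Cell lines in DMEM/F12 or RPMI with 10% FBS were plated in 1536-well plates, held 24 hours at 37°C, 5% CO2, then given two-drug dose matrices for 72 hours (DMSO typically 0.2%). Viability was read by CellTiter-Glo 2.0 luminescence and scaled as inhibition from 0 (vehicle wells) to 1 (blank wells). Combination Emax is the second-highest inhibition in the matrix; Bliss excess is observed combination effect minus expected EA + EB − EA·EB, EA and EB being single-agent effects.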

[2] = tested on: OCUM-1 (Gastric Carcinoma); assay: as above
In short: as §1

[3] = tested on: KYSE-50 (Esophageal Squamous Cell Carcinoma); assay: as above
In short: as §1

[4] = tested on: NCI-H1573 (Lung Adenocarcinoma); assay: as above
In short: as §1

[5] = tested on: NCI-H2347 (Lung Adenocarcinoma); assay: as above
In short: as §1

[6] = tested on: EMC-BAC-2 (Non-Small Cell Lung Carcinoma); assay: as above
In short: as §1

[7] = tested on: SNU-C1 (Colorectal Carcinoma); assay: as above
In short: as §1

[8] = tested on: NB7 (Neuroblastoma); assay: as above
In short: as §1

[9] = tested on: NCI-N87 (Gastric Carcinoma); assay: as above
In short: as §1

[10] = tested on: PF-382 (T-Lymphoblastic Leukemia); assay: as above
In short: as §1

[11] = tested on: RPMI-7951 (Melanoma); assay: as above
In short: as §1

[12] = tested on: GI-1 (Glioblastoma); assay: as above
In short: as §1

[13] = tested on: IMR-5 (Neuroblastoma); assay: as above
In short: as §1

[14] = tested on: EW-18 (Ewing's Sarcoma); assay: combination Emax (second highest fraction inhibited in the dose matrix, 72 h); higher = more inhibition; extreme values may be limits of the assay
In short: as §1

[15] = tested on: OCUM-1 (Gastric Carcinoma); assay: as above
In short: as §1

[16] = tested on: LOU-NH91 (Squamous Cell Lung Carcinoma); assay: as above
In short: as §1

[17] = tested on: SNU-C1 (Colorectal Carcinoma); assay: as above
In short: as §1

[18] = tested on: ASH-3 (Thyroid Gland Carcinoma); assay: as above
In short: as §1

[19] = tested on: KINGS-1 (Low Grade Glioma); assay: as above
In short: as §1

[20] = tested on: VMRC-LCD (Lung Adenocarcinoma); assay: as above
In short: as §1
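Wherever Bliss excess, mean over the matrix is given: after 72 h of two-drug dosing.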

Row | SMILES | Bliss excess [1] | Bliss excess [2] | Bliss excess [3] | Bliss excess [4] | Bliss excess [5] | Bliss excess [6] | Bliss excess [7] | Bliss excess [8] | Bliss excess [9] | Bliss excess [10] | Bliss excess [11] | Bliss excess [12] | Bliss excess [13] | combination Emax [14] | combination Emax [15] | combination Emax [16] | combination Emax [17] | combination Emax [18] | combination Emax [19] | combination Emax [20]
1 | Cc1c2c(nn1C)CSCc1cc(n(C)n1)CSc1cc(c3ccccc3c1)OCCCc1c(C(=O)O)n(C)c3c-2c(Cl)ccc13 [AZD5991] + Cn1cnc2c(F)c(Nc3ccc(Br)cc3Cl)c(C(=O)NOCCO)cc21 [Selumetinib] (first compound max 1 µM, 7x7, partner max 3 µM) | 0.0402 | -0.0034 | -0.0049 | -0.0059 | -0.0006 | 0.0081 | 0.0034 | -0.0259 | 0.0633 | 0.0006 | -0.0072 | -0.0491 | -0.0154 | 0.927 | 0.895 | 0.581 | 0.695 | 0.368 | 0.354 | 0.174
2 | COc1cc2c(cc1OCCCCCOc1cc3c(cc1OC)C(=O)N1C=C(C)C[C@H]1C=N3)N=C[C@@H]1CC(C)=CN1C2=O [SG3199] + O=C(c1cc(Cc2n[nH]c(=O)c3ccccc23)ccc1F)N1CCN(C(=O)C2CC2)CC1 [Olaparib] (first compound max 0.001 µM, 7x7, partner max 10 µM) | -0.0131 | -0.0653 | -0.0319 | -0.0212 | -0.0661 | -0.0467 | -0.0446 | -0.0474 | -0.0477 | 0.0069 | 0.0032 | -0.0178 | 0.0167 | 0.0839 | 0.122 | 0.175 | 0.0546 | 0.0979 | 0.147 | 0.0613
3 | Cc1c2c(nn1C)CSCc1cc(n(C)n1)CSc1cc(c3ccccc3c1)OCCCc1c(C(=O)O)n(C)c3c-2c(Cl)ccc13 [AZD5991] + C[C@@H](Nc1cc(F)cc(F)c1)c1cc(C(=O)N(C)C)cc2c(=O)cc(N3CCOCC3)oc12 [AZD8186] (first compound max 1 µM, 7x7, partner max 3 µM) | -0.0127 | -0.0302 | 0.0319 | -0.0303 | 0.0251 | -0.0336 | -0.0148 | 0.0187 | -0.0181 | 0.005 | 0.0878 | 0.0556 | -0.0006 | 0.94 | 0.137 | 0.371 | 0.439 | 0.46 | 0.366 | 0.196
4 | NC1(C(=O)N[C@@H](CCO)c2ccc(Cl)cc2)CCN(c2ncnc3[nH]ccc23)CC1 [Capivasertib] + CCN(CCO)CCCOc1ccc2c(Nc3cc(CC(=O)Nc4cccc(F)c4)[nH]n3)ncnc2c1 [AZD2811] (first compound max 10 µM, 7x7, partner max 1 µM) | -0.011 | 0.0378 | 0.0278 | -0.0074 | -0.0369 | -0.0124 | -0.0407 | 0.0377 | -0.0529 | -0.0497 | -0.0886 | 0.022 | -0.0144 | 0.811 | 0.683 | 0.519 | 0.588 | 0.451 | 0.429 | 0.59
5 | CCN(CCO)CCCOc1ccc2c(Nc3cc(CC(=O)Nc4cccc(F)c4)[nH]n3)ncnc2c1 [AZD2811] + C=CCn1c(=O)c2cnc(Nc3ccc(N4CCN(C)CC4)cc3)nc2n1-c1cccc(C(C)(C)O)n1 [AZD1775] (first compound max 1 µM, partner max 1 µM) | 0.0438 | -0.0127 | 0.0006 | -0.0457 | -0.0475 | -0.0112 | -0.0321 | 0.0497 | -0.0657 | -0.0432 | 0.0106 | 0.0285 | -0.0064 | 0.635 | 0.482 | 0.383 | 0.151 | 0.103 | 0.276 | 0.553
6 | COc1cccc(OCCCN)c1-c1cc(Nc2cnc(C#N)cn2)n[nH]1 [Prexasertib] + CN(C)CCCOc1ccc(-c2ccc3ncc4c(c3c2)n(C2CCOCC2)c(=O)n4C)cn1 [AZD0156] (first compound max 1 µM, 7x7, partner max 1 µM) | -0.0386 | 0.0558 | 0.0138 | -0.0309 | -0.0178 | 0.0756 | -0.0336 | -0.0194 | -0.0381 | -0.0448 | -0.0165 | 0.0084 | -0.015 | 0.761 | 0.818 | 0.445 | 0.751 | 0.565 | 0.528 | 0.751
7 | CC(=O)c1c(C)c2cnc(Nc3ccc(N4CCNCC4)cn3)nc2n(C2CCCC2)c1=O [Palbociclib] + CN(CC[C@H](CSC1=CC=CC=C1)NC2=C(C=C(C=C2)S(=O)(=O)NC(=O)C3=CC=C(C=C3)N4CCC(CC4)[C@H](C5=CC=CC=C5C6=CC=C(C=C6)Cl)O)S(=O)(=O)C(F)(F)F)CCO [AZD4320] (first compound max 10 µM, 7x7, partner max 1 µM) | -0.109 | – | -0.0228 | -0.109 | -0.109 | -0.193 | – | – | – | -0.0062 | 0.0312 | – | 0.0866 | 0.903 | – | 0.618 | – | 0.692 | – | –
8 | Cc1c2c(nn1C)CSCc1cc(n(C)n1)CSc1cc(c3ccccc3c1)OCCCc1c(C(=O)O)n(C)c3c-2c(Cl)ccc13 [AZD5991] + CCN(CCO)CCCOc1ccc2c(Nc3cc(CC(=O)Nc4cccc(F)c4)[nH]n3)ncnc2c1 [AZD2811] (first compound max 1 µM, 7x7, partner max 1 µM) | -0.0339 | -0.0031 | – | -0.0145 | 0.0102 | 0.0438 | -0.0256 | 0.0679 | -0.0104 | 0.0276 | -0.0924 | 0.0731 | -0.0117 | 0.919 | 0.394 | 0.612 | 0.415 | 0.3 | 0.242 | 0.613
9 | CN(CCO)CC[C@H](CSc1ccccc1)Nc1ccc(S(=O)(=O)NC(=O)c2ccc(N3CCC([C@@H](O)c4ccccc4-c4ccc(Cl)cc4)CC3)cc2)cc1S(=O)(=O)C(F)(F)F [AZD4320] + Cn1cnc2c(F)c(Nc3ccc(Br)cc3Cl)c(C(=O)NOCCO)cc21 [Selumetinib] (first compound max 1 µM, 7x7, partner max 3 µM) | -0.0152 | 0.0319 | 0.0405 | 0.0027 | 0.0288 | 0.0022 | – | 0.0397 | 0.0201 | 0.0409 | -0.006 | 0.0069 | 0.0409 | 0.881 | 0.996 | 0.662 | 0.944 | 0.728 | 0.481 | 0.226
10 | COc1nnc2ccc(N3CCC(c4ccc(OCCN5CCN(C)C(=O)[C@H]5C)cc4)CC3)nn12 [AZD5153] + CN(CC[C@H](CSC1=CC=CC=C1)NC2=C(C=C(C=C2)S(=O)(=O)NC(=O)C3=CC=C(C=C3)N4CCC(CC4)[C@H](C5=CC=CC=C5C6=CC=C(C=C6)Cl)O)S(=O)(=O)C(F)(F)F)CCO [AZD4320] (first compound max 1 µM, 7x7, partner max 1 µM) | 0.0321 | – | 0.0999 | 0.0178 | -0.042 | 0.0491 | – | – | – | 0.0343 | 0.0467 | – | 0.0807 | 0.929 | – | 0.781 | – | 0.958 | – | –
11 | CS(=O)(=O)CCNCc1ccc(-c2ccc3ncnc(Nc4ccc(OCc5cccc(F)c5)c(Cl)c4)c3c2)o1 [Lapatinib] + NC1(c2ccc(-c3nc4ccn5c(=O)[nH]nc5c4cc3-c3ccccc3)cc2)CCC1 [MK-2206] (first compound max 10 µM, 7x7, partner max 10 µM) | 0.0159 | -0.0313 | – | -0.0055 | -0.0315 | – | -0.0184 | 0.0221 | 0.0091 | -0.0144 | – | 0.0275 | – | – | 0.843 | – | 0.631 | 0.956 | 0.83 | 0.205
12 | C[C@@H](c1ccc2nccn2c1)n1nnc2ncc(-c3cnn(C)c3)nc21 [Savolitinib] + CN(CC[C@H](CSC1=CC=CC=C1)NC2=C(C=C(C=C2)S(=O)(=O)NC(=O)C3=CC=C(C=C3)N4CCC(CC4)[C@H](C5=CC=CC=C5C6=CC=C(C=C6)Cl)O)S(=O)(=O)C(F)(F)F)CCO [AZD4320] (first compound max 1 µM, 7x7, partner max 1 µM) | -0.0775 | – | -0.011 | -0.0473 | -0.0474 | -0.0794 | – | – | – | -0.0665 | -0.0203 | – | -0.0399 | 0.891 | – | 0.334 | – | 0.463 | – | –
13 | Cc1c2c(nn1C)CSCc1cc(n(C)n1)CSc1cc(c3ccccc3c1)OCCCc1c(C(=O)O)n(C)c3c-2c(Cl)ccc13 [AZD5991] + C=CCn1c(=O)c2cnc(Nc3ccc(N4CCN(C)CC4)cc3)nc2n1-c1cccc(C(C)(C)O)n1 [AZD1775] (first compound max 1 µM, partner max 1 µM) | 0.0496 | -0.0148 | -0.0042 | -0.0248 | -0.0393 | -0.0121 | -0.0839 | -0.0084 | -0.0275 | -0.0314 | – | -0.0109 | 0.0063 | 0.91 | 0.38 | 0.556 | 0.395 | 0.339 | 0.334 | 0.506
14 | C=CCn1c(=O)c2cnc(Nc3ccc(N4CCN(C)CC4)cc3)nc2n1-c1cccc(C(C)(C)O)n1 [AZD1775] + C1CN(CCC1(C(=O)N[C@@H](CCO)C2=CC=C(C=C2)Cl)N)C3=NC=NC4=C3C=CN4 [Capivasertib] (first compound max 3 µM, partner max 3 µM) | 0.0064 | -0.0694 | -0.0306 | -0.0318 | -0.0534 | 0.0514 | -0.0869 | -0.0648 | -0.0067 | 0.144 | -0.0274 | 0.0543 | -0.0214 | 0.859 | 0.707 | 0.727 | 0.568 | 0.519 | 0.473 | –
